Columns and labels:
[1] = DRUGMATRIX: Phosphodiesterase PDE3 enzyme inhibition (substrate: [3H]cAMP + cAMP); format: tissue-based, Homo sapiens; settings: platelet; Not Active = under 50% inhibition at 10 µM
[2] = DRUGMATRIX: Glutamate, AMPA radioligand binding (ligand: [3H] AMPA); format: cell membranes, Rattus norvegicus, Wistar, Cerebral cortex, Membrane; settings: Not Active = under 50% inhibition at 10 µM
[3] = target: Sodium-dependent noradrenaline transporter (Homo sapiens, UniProt P23975); test: DRUGMATRIX: Norepinephrine Transporter radioligand binding (ligand: [125I] RTI-55); format: cell membranes, MDCK, Membrane; settings: mdck; Not Active = under 50% inhibition at 10 µM
Sodium-dependent noradrenaline transporter, sequence (P23975 whole entry): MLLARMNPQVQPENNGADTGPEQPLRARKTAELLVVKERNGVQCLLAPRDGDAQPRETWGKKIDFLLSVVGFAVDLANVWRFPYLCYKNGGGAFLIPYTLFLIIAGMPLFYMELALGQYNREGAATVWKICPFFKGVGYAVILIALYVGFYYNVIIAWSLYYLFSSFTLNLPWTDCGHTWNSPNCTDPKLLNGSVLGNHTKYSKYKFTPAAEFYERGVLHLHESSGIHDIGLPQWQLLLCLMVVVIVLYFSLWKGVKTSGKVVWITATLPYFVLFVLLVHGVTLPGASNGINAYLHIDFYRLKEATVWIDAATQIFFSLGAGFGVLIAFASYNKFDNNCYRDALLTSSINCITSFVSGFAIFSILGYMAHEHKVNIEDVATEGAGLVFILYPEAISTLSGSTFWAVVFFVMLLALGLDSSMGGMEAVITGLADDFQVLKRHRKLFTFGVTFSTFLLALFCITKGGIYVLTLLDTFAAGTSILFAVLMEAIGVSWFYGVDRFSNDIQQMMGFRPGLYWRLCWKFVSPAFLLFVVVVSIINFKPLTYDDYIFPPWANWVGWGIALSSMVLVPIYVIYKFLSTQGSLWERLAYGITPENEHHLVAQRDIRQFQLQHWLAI

[4] = DRUGMATRIX: Calcium Channel Type L, Dihydropyridine radioligand binding (ligand: [3H] Nitrendipine); format: cell membranes, Rattus norvegicus, Wistar, Cerebral cortex, Membrane; settings: Not Active = under 50% inhibition at 10 µM
[5] = target: Sodium-dependent dopamine transporter (Homo sapiens, UniProt Q01959); test: DRUGMATRIX: Dopamine Transporter radioligand binding (ligand: [125I] RTI-55); format: cell membranes, CHO-K1, Membrane; settings: cho-k1; Not Active = under 50% inhibition at 10 µM
Sodium-dependent dopamine transporter, sequence (Q01959 whole entry): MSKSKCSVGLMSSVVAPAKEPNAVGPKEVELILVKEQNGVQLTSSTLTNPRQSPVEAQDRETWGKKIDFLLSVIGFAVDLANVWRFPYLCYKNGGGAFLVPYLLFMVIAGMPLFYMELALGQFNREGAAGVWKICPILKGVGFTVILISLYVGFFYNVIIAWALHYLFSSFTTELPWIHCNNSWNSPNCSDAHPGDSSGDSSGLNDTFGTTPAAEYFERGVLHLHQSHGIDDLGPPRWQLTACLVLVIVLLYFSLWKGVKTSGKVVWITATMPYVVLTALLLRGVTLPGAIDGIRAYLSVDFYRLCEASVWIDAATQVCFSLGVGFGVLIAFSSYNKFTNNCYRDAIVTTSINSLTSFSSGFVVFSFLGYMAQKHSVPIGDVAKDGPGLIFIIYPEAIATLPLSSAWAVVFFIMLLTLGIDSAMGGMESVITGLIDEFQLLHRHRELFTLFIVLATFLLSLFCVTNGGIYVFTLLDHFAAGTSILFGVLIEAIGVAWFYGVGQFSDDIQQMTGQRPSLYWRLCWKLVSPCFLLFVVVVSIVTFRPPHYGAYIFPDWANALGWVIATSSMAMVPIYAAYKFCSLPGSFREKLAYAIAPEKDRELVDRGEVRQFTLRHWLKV

[6] = target: Cytochrome P450 2C9 (Homo sapiens, UniProt P11712); settings: bti-tn-5b1-4; note: in other assays of this panel Not Active means under 50% inhibition at 10 µM
Cytochrome P450 2C9, sequence (P11712 whole entry): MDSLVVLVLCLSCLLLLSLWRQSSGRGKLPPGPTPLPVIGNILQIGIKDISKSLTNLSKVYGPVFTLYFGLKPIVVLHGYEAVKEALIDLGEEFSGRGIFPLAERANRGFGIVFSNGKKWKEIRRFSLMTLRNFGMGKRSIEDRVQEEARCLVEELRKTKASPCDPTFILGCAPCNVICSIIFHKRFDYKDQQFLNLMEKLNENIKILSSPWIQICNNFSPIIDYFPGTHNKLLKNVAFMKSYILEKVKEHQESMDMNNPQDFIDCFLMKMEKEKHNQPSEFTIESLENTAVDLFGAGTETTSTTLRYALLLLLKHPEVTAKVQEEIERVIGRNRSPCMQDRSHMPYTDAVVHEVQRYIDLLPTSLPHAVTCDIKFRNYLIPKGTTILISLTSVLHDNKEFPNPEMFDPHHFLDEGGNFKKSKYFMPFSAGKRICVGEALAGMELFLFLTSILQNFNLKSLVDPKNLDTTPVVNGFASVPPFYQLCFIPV

[7] = DRUGMATRIX: Potassium Channel [KATP] radioligand binding (ligand: [3H] Glyburide); format: cell membranes, Membrane; settings: hit-t15; Not Active = under 50% inhibition at 10 µM
[8] = DRUGMATRIX: Platelet-Derived Growth Factor (PDGF) radioligand binding (ligand: [125I] PDGF); format: cell-based; settings: nih3t3; Not Active = under 50% inhibition at 10 µM
[9] = DRUGMATRIX: Tumor Necrosis Factor (TNF), Non-Selective radioligand binding (ligand: [125I] TNF-alpha); format: cell membranes, Membrane; settings: u-937; Not Active = under 50% inhibition at 10 µM

ZIRCONIUM(IV) CHLORIDE
Not Active: IC50 [1] | Ki [1] | IC50 [2] | Ki [2] | IC50 [3] | Ki [3] | IC50 [4] | Ki [4] | IC50 [5] | Ki [5] | IC50 [6] | Ki [6] | IC50 [7] | Ki [7] | IC50 [8] | Ki [8] | IC50 [9] | Ki [9]

O=C(O)c1ccccc1O [SALICYLIC ACID]
Not Active: IC50 [1] | Ki [1] | IC50 [2] | Ki [2] | IC50 [3] | IC50 [4] | Ki [4] | IC50 [5] | IC50 [6] | Ki [6] | IC50 [7] | Ki [7] | IC50 [8] | Ki [8] | IC50 [9] | Ki [9]
